{
  "source": "patent US20190388389A1",
  "about": "“METHODS AND COMPOSITIONS OF CARNOSOL FOR INHIBITING UVB-INDUCED SKIN DAMAGE” (Ohio University, priority 2017, published 2019)",
  "key": {"[1]": {"tested_on": "A431 human squamous carcinoma cell", "assay": "Clonogenic assay, A431", "assay_type": "cell-based", "description": "FIGS. 9A-9B. Carnosol decreases A431 cancer cell progression. Squamous carcinoma cell A431 was used to determine the effect of carnosol on cancer cell progression. (FIG. 9A) Effect of carnosol on cell viability. Cells were treated upon 50 mJ/cm^2 UVB radiation with or without carnosol treatment. After 24 h, cells were collect and MTT assay was performed to determine the cell viability. *p<0.05 versus control group, **p<0.05 versus UV group at indicated time point. (FIG. 9B) Effect of carnosol on clonogenic assay. Cells were exposed to 8 mJ/cm^2 UVB exposure in the presence or absence of carnosol. 5×10^3 cells were plated into 6 well plate immediately after treatment and incubated for […]. The error bars present the standard deviation of three sets of independent experiments. *p<0.05 versus control group, **p<0.05 versus UV group at indicated time point.\nImmediate after treatment, cells were harvested with 0.25% trypsin-EDTA and counted, and then 5×10^3 cells were plated in 6-well plates. After 6 days, cells were fixed with cold methanol for 10 mM at […] and then stained by 1% crystal violet in 25% methanol for 10 mM. Cells were then rinsed with distilled water and colonies with a size greater than 0.4 mm were counted by Kodak IS in vivo F system equipped with Kodak Molecular Imaging Software (Eastman Kodak)."}, "[2]": {"tested_on": "IκB", "assay": "Western blot for IκB protein level, HaCaT cells", "assay_type": "cell-based, Human", "description": "FIGS. 7A-7F: Carnosol inhibited UVB-induced NF-κB activation. Cells were exposed to UVB radiation in the presence or absence of carnosol. Cells were lysed at indicated time point and protein levels were measured by western blot analysis. (FIG. 7A) Western blot for IκB protein level in HaCaT cells at 2, 4 h post UVB radiation at 1, 10 or 20 μM carnosol treatment. (FIG. 7B) Western blot analysis for IκB protein level in HaCaT cells at 6 h post UVB radiation in the presence or absence of carnosol. (FIG. 7C) Western blot analysis for IκB protein level in MEF cells at 6 h post UVB radiation in the presence or absence of carnosol. (FIG. 7D) Western blot for 5276 site phosphorylation of NF-κB in HaCaT cells at 6 h post UVB with indicated carnosol concentration. (FIG. 7E) EMSA assay for HaCaT cells at 2, 4, 6 h post UVB radiation in the presence or absence of carnosol (20 μM). (FIG. 7F) Statistical analysis of the EMSA assay using two to three sets of independent experiments. *p<0.05 versus control group, **p<0.05 versus UV group at indicated time point.\nCells were lysed with Nonidet P-40 (NP-40) lysis buffer (2% NP-40, 80 mM NaCl, 100 mM Tris-HCl pH 8.0, 0.1% SDS) with proteinase inhibitor mixture (Complete™, Roche Molecular Biochemicals) at indicated time point. […] Protein concentration was measured by Protein DC Assay kit (Bio-Rad Laboratories). […]"}, "[3]": {"tested_on": "phosphor-Chk", "assay": "Western blot of DNA damage marker, MEF cells", "assay_type": "cell-based, mouse", "conditions": "early stage post UVB 50 mJ/cm^2", "description": "(§1) FIGS. 5A-5B: Carnosol protects UVB-induced DNA damage. (FIG. 5A) HaCaT cells and (FIG. 5B) MEF cells were exposed to 50 mJ/cm^2 UVB radiation in the presence or absence of carnosol. Cells were lysed at indicated time point and protein levels of phosphorylated H2AX and Chk were measured. The data represents three sets of independent experiments.\n(§2) Cells were lysed with Nonidet P-40 (NP-40) lysis buffer (2% NP-40, 80 mM NaCl, 100 mM Tris-HCl pH 8.0, 0.1% SDS) with proteinase inhibitor mixture (Complete™, Roche Molecular Biochemicals) at indicated time point. Cell lysate was incubated on ice for 15 min and then centrifuged at 14,000 rpm at 4° C. for 15 min. Protein concentration was measured by Protein DC Assay kit (Bio-Rad Laboratories). Equal amounts of protein were subjected on SDS-PAGE and transferred to a nitrocellulose membrane. The membrane was then blocked in 5% milk in Tris buffered saline plus Tween 20 ® (TBST) for 45 min and probed with anti-yH2AX (Cell Signaling), anti-pCHK (Cell Signaling), anti-p276-NF-κB (Santa Cruz), anti-NF-κB p65 (Santa Cruz), anti-IκB (Santa Cruz), or anti-β-actin (Santa Cruz) at 4° C. overnight. After washing with TBST, the membrane was incubated with corresponding HRP-conjugated anti-rabbit or anti-mouse antibody for 45 min at room temperature. […]"}, "[4]": {"tested_on": "γH2AX (phosphorylated H2AX)", "assay": "Western blot of DNA damage marker, MEF cells", "assay_type": "cell-based, mouse", "conditions": "early stage post UVB 50 mJ/cm^2", "description": "as §1, §2"}},
  "data": [
    {"compound": "CC(C)c1cc2c(c(O)c1O)[C@@]13CCCC(C)(C)[C@@H]1C[C@@H]2OC3=O", "note": "[carnosol]", "values": [
      {"measurement": "effect of double treatment on reduction of cancer cell survival", "setting": "[1]; A431, carnosol and UVB radiation together", "value": "synergistic effect"},
      {"measurement": "colony formation", "setting": "[1]; A431, carnosol combined with 8 mJ/cm^2 UVB, UVB alone about 43%", "value": "about 17%"},
      {"measurement": "colony formation rate", "setting": "[1]; A431, carnosol treatment alone", "value": "about 65%"},
      {"measurement": "IκB protein level", "setting": "[2]; HaCaT, 2, 4 h post UVB, dose dependent (1, 10, 20 μM)", "value": "protects IκB level"},
      {"measurement": "IκB protein level", "setting": "[2]; HaCaT, 6 h post UVB", "value": "protection exists at least until 6 h"},
      {"measurement": "phosphorylation level of Chk", "setting": "[3]", "value": "reduced"},
      {"measurement": "phosphorylation level of H2AX", "setting": "[4]", "value": "reduced"}
    ]}
  ]
}
